Measured values: patent publication US6818670B2, “Active ingredient combination having insecticidal and acaricidal characteristics” (priority 1999, dated 2004)

Experiments:
Assay type in all cases: in vivo
[1] = tested on: diamond-back moth caterpillars (Plutella xylostella); experiment: Plutella test (cabbage leaves, immersion); settings: single active compound, 1.6 ppm
Protocol: (§1) To produce a suitable active compound preparation, 1 part by weight of active compound is mixed with the stated amounts of solvent and emulsifier, and the concentrate is diluted with emulsifier-containing water to the desired concentration.
Cabbage leaves (Brassica oleracea) are treated by immersion in the active compound preparation of the desired concentration and are populated with diamond-back moth caterpillars (Plutella xylostella) while the leaves are still moist.
(§2) After the desired period, the destruction is determined in %. 100% means that all caterpillars have been killed; 0% means that none of the caterpillars have been killed. The kill figures determined are calculated using Colby's formula.

[2] = tested on: fall army worm caterpillars (Spodoptera exigua); experiment: Spodoptera exigua test (cabbage leaves, immersion); settings: single active compound, 8 ppm
Protocol: (§3) To produce a suitable preparation of active compound, 1 part by weight of active compound is mixed with the stated amounts of solvent and emulsifier, and the concentrate is diluted with emulsifier-containing water to the desired concentration.
Cabbage leaves (Brassica oleracea) are treated by immersion in the active compound preparation of the desired concentration and are populated with fall army worm caterpillars (Spodoptera exigua) while the leaves are still moist.
as §2

[3] = tested on: Heliothis virescens caterpillars; experiment: Heliothis virescens test (soya bean shoots, immersion); settings: single active compound, 0.32 ppm
Protocol: as §1
Soya bean shoots (Glycine max) are treated by immersion in the active compound preparation of the desired concentration and are populated with Heliothis virescens caterpillars while the leaves are still moist.
as §2

[4] = tested on: green rice leaf-hoppers (Nephotettix cincticeps); experiment: Nephotettix test (rice seedlings, immersion); settings: single active compound, 0.32 ppm
Protocol: as §3
Rice seedlings (Oryza sativa) are treated by immersion in the active compound preparation of the desired concentration and are populated with green rice leaf-hoppers (Nephotettix cincticeps) while the leaves are still moist.
After the desired period, the destruction is determined in %. 100% means that all leafhoppers have been killed; 0% means that none of the leafhoppers have been killed. The kill figures determined form the basis for calculations with Colby's formula.

[5] = tested on: common spider mite (Tetranychus urticae); experiment: Tetranychus test (OP-resistant/spray treatment, bean plants); settings: single active compound, 0.32 ppm, OP-resistant, spray treatment
Protocol: OP-resistant/spray Treatment
as §1
Bean plants (Phaseolus vulgaris) which are severely infested with all stages of the common spider mite (Tetranychus urticae) are sprayed with an active compound preparation of the desired concentration.
After the desired period, the action is determined in %. 100% means that all spider mites have been killed; 0% means that none of the spider mites have been killed. The kill figures determined are calculated using Colby's formula.

SMILES	Percentage destruction after 3 days [1] [%]	Percentage destruction after 6 days [2] [%]	Percentage destruction after 3 days [3] [%]	Percentage destruction after 6 days [4] [%]	Percentage destruction after 14 days [5] [%]
CC1(C)C(C=C(Cl)Cl)C1C(=O)OC(C#N)c1ccc(F)c(Oc2ccccc2)c1 (stereo not shown) [Betacyfluthrin, betacyfluthrin]	80	90	75	50	
COP(N)(=O)SC (stereo not shown) [Methamidophos, methamidophos]					0
CCC(C)(C)C(=O)OC1=C(c2ccc(Cl)cc2Cl)C(=O)OC12CCCCC2 [Ex. (I-b-1)]	0	0	0	0	0
